# Columns and labels:
# [1] = tested on: A549 cells challenged with P. aeruginosa PAO1 culture supernatant; assay: A549 cell-based assay, LasB-related cytotoxicity (MTT); design: species or system human; details: 10% (v/v) PAO1 csn
# Method: The human lung adenocarcinoma cell line (A549) was cultured in Dulbecco's Modified Eagle Medium (DMEM), containing 10% Fetal Bovine Serum (FBS) and 1% penicillin-streptomycin mixture. Cells were maintained according to standard cell culture procedures.
# To conduct the assay, 2.5-3.5*10^3 cells/well were seeded into a flat bottom 96-well plate (Corning™ Costar™) and incubated at 37° C.+5% CO2 for 24 hours. On the following day, several concentrations of the compound 169 were tested against 10% (v/v) Pseudomonas aeruginosa PAO1 (DSM 22644, ATCC 15692) culture supernatant diluted in DMEM starting from 1.25 μM. The compound was initially dissolved in 99.9% Dimethyl sulfoxide (DMSO) and a final assay concentration of 0.5% (v/v) was applied to minimize the proteolytic effect of DMSO on the bacterial culture supernatant. In addition, cells were challenged with 10% (v/v) of AlasB PAO1 to confirm the toxic effect derived from LasB, and DMEM was included as a control without any treatment. Plates were incubated at 37° C.+5% CO2 for 24 hours prior to the MTT assay.
# The graph represents three independent experiments ±SD. One-way ANOVA statistical analysis was performed following Dunnett's multiple comparisons test, comparing the mean value of each concentration to the mean value of PAO1 without any treatment with compounds (**** p≤0.0001, ** p≤0.01, * p≤0.05).
# P. aeruginosa PA-14 = assay: MIC determination assay / antibacterial activity; assay type: cell-based; details: Pseudomonas aeruginosa, PA14
# Method: Assays regarding the determination of the minimum inhibitory concentration (MIC) were performed as described previously (Elgaher W A M, Fruth M, Groh M, Haupenthal J, Hartmann R W. Expanding the scaffold for bacterial RNA polymerase inhibitors: design, synthesis and structure-activity relationships of ureido-heterocyclic-carboxylic acids. RSC Adv. 2013 Dec. 3; 4(5):2177-94). The experiments were based on the P. aeruginosa strain PA14. For the case that no MIC value could be determined due to activity reasons, percentage (%) inhibition at 100 μM (or lower, depending on the solubility of the compounds) was calculated. The OD600 was measured 0 and 16 h after inhibitor addition in a CLARIOstar Platereader (BMG Labtech, Ortenberg, Germany).
smiles,measurement,setting,value
"CC(C)CC(C(=O)NO)C(=O)Nc1ccc(Cn2cc(CNS(=O)(=O)CC(C)C)nn2)cc1 (stereo not drawn) [Compound 169, 2-(Hydroxycarbamoyl)-N-[4-[[4-[(isobutylsulfonylamino)methyl]triazol-1-yl]methyl]phenyl]-4-methyl-pentanamide]",Reduction of LasB-related cytotoxicity in A549 cells,"[1]; 24 h, MTT",excellent potency
same,Dose-response of LasB inhibition in A549 cells,[1]; from 1.25 μM,Dose-dependent inhibition of LasB in a low micromolar to nanomolar range
same,IC50,P. aeruginosa PA-14,> 100 µM
